The test system of experiment [1] is Pfeiffer cell line (diffuse large B cell lymphoma). Description: Pfeiffer cell proliferation assay. The format is cell-based. To be noted: Pfeiffer cells, 3-4 days plus 12 hours [3H]-thymidine incorporation. How it is done:
Example C: Pfeiffer Cell Proliferation Assay
Pfeiffer cell line (diffuse large B cell lymphoma) was purchased from ATCC (Manassas, Va.) and maintained in the culture medium recommended (RPMI and 10% FBS). To measure the anti-proliferation activity of the compounds, the Pfeiffer cells were plated with the culture medium (2×10^3 cells/well/per 200 μl) into 96-well ultra-low binding plates (Corning, Corning, N.Y.), in the presence or absence of a concentration range of test compounds. After 3-4 days, [^3H]-thymidine (1 μCi/well) (PerkinElmer, Boston, Mass.) in PBS was then added to the cell culture for an additional 12 hours before the incorporated radioactivity was separated by filtration with water through GF/B filters (Packard Bioscience, Meridenj, Conn.) and measured by liquid scintillation counting with a TopCount (Packard Bioscience).
(Incorporation of labelled thymidine or its analogues reports DNA synthesis.)

In the next experiment the target is T1, PI3Kδ (p110δ/p85α) (Homo sapiens, UniProt O00329).
T1 construct: purchased Millipore (Bedford, Mass.)
T1 sequence (O00329 whole entry, species assumed): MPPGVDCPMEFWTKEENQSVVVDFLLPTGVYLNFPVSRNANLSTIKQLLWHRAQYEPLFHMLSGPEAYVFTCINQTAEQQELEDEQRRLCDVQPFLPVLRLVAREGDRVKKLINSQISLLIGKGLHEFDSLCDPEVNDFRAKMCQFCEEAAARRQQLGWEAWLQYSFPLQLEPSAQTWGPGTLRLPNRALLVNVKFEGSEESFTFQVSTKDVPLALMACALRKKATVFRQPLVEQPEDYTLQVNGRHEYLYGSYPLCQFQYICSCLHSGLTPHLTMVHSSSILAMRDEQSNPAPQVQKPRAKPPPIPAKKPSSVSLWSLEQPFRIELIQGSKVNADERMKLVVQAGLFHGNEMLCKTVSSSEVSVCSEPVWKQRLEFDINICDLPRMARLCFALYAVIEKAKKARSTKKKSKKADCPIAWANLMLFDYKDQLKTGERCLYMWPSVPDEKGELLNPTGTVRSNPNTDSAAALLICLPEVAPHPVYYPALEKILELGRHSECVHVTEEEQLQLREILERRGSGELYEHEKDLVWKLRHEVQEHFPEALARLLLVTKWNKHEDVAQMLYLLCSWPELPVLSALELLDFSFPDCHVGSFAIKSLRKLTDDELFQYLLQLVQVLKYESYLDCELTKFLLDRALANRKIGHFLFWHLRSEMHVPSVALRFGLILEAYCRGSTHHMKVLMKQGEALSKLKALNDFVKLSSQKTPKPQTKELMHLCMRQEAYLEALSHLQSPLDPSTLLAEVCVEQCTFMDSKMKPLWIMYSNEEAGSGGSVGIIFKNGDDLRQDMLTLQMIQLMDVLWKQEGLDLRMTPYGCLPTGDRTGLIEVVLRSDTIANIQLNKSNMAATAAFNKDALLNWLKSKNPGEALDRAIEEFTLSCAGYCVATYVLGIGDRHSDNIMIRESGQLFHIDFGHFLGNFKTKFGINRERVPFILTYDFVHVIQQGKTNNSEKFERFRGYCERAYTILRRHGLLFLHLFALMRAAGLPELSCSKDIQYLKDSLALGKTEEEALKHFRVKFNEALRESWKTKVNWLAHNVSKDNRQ
T1 sequence (P27986 whole entry partner, species assumed): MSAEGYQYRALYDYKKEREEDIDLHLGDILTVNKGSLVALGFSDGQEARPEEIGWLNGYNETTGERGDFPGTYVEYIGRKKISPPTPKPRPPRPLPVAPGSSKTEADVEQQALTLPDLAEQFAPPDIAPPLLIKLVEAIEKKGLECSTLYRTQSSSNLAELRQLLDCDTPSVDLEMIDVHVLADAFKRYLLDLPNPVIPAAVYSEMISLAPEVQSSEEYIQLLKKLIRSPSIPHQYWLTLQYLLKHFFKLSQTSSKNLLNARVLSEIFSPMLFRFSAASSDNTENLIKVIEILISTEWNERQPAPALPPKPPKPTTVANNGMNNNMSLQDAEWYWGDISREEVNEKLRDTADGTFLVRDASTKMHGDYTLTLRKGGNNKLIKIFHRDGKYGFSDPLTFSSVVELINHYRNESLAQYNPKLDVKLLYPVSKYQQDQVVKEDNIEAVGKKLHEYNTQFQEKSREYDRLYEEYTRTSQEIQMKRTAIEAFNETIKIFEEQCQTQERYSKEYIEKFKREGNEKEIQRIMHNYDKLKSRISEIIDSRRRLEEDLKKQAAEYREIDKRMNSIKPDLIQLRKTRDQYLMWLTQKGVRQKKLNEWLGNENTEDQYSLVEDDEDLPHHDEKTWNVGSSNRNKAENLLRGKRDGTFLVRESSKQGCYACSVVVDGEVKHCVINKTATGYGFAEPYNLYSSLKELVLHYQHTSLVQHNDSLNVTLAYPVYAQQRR
Description: PI3Kδ scintillation proximity assay. The format is biochemical. The conditions noted are these: 20 μM ATP, 4 nM PI3Kδ. In outline: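 Radiometric SPA: product captured on WGA beads after EDTA quench and counted, IC50 fitted against log inhibitor concentration. Reactions ran 210 min at room temperature with 4 nM PI3Kδ (p110δ/p85α), 20 μM each PIP2 and ATP plus 33P-ATP, pH 6.7 MOPS buffer, 0.5% DMSO final.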

Counter-ions that a name gives are not always drawn.

As to `Cc1c(Cl)cc(C(C)Nc2ncnc3[nH]cnc23)c(-c2cccc(F)c2)c1C#N` (centres unmarked) [Example 1, 4-Chloro-3′-fluoro-3-methyl-6-[1-(9H-purin-6-ylamino)ethyl]biphenyl-2-carbonitrile], the IC50 in experiment [1] (Homo sapiens, Pfeiffer) is 500 to 1000 nM.

Take `COc1c(C(C)Nc2ncnc3[nH]cnc23)cc(Cl)c(C)c1-c1ccc(S(C)(=O)=O)cc1` (centres unmarked) [Example 32, N-{1-[5-chloro-2-methoxy-6-methyl-4′-(methylsulfonyl)biphenyl-3-yl]ethyl}-9H-purin-6-amine]: the 50% inhibitory concentration (IC50) in experiment [1] (Homo sapiens, Pfeiffer) is below 100 nM.

`COc1c(C(C)Nc2ncnc3[nH]cnc23)cc(Cl)c(C)c1-c1cnc(N)nc1` (centres unmarked) [Example 33, N-{1-[3-(2-aminopyrimidin-5-yl)-5-chloro-2-methoxy-4-methylphenyl]ethyl}-9H-purin-6-amine]: the concentration for half-maximal inhibition (IC50) in experiment [1] (Homo sapiens, Pfeiffer) was below 100 nM.

In the case of `COc1c(C(C)Nc2ncnc3[nH]cnc23)cc(Cl)c(C)c1-c1cc(F)ccc1F` (centres unmarked) [Example 50, N-[1-(5-chloro-2′,5′-difluoro-2-methoxy-6-methylbiphenyl-3-yl)ethyl]-9H-purin-6-amine], the IC50 in experiment [1] (Homo sapiens, Pfeiffer) is above 1000 nM; in experiment [1] it was 500 to 1000 nM.

Consider `COc1c(C(C)Nc2ncnc3[nH]cnc23)cc(Cl)c(C)c1C1CN(C(C)C)C(=O)O1` (centres unmarked) [Example 189, 5-{3-Chloro-6-methoxy-2-methyl-5-[1-(9H-purin-6-ylamino)ethyl]phenyl}-3-isopropyl-1,3-oxazolidin-2-one trifluoroacetate], for which the IC50 on PI3Kδ (p110δ/p85α) is below 50 nM.

In turn, `COc1c(C(C)Nc2ncnc3[nH]cnc23)cc(Cl)c(C)c1C(O)CN1CCOCC1` (centres unmarked) [Example 190, 1-{3-Chloro-6-methoxy-2-methyl-5-[1-(9H-purin-6-ylamino)ethyl]phenyl}-2-morpholin-4-ylethanol bis(trifluoroacetate)] had an IC50 on PI3Kδ (p110δ/p85α) below 50 nM.

As to `COc1c(C(C)Nc2ncnc3[nH]cnc23)cc(Cl)c(C)c1C1CN(C(C)C)C(=O)CO1` (centres unmarked) [Example 191, 6-{3-Chloro-6-methoxy-2-methyl-5-[1-(9H-purin-6-ylamino)ethyl]phenyl}-4-isopropylmorpholin-3-one trifluoroacetate], the IC50 on PI3Kδ (p110δ/p85α) was below 50 nM.

Regarding `COc1c(C(C)Nc2ncnc3[nH]cnc23)cc(Cl)c(Cl)c1C1CN(C(C)C(F)(F)F)C1` (centres unmarked) [Example 198, N-(1-{4,5-Dichloro-2-methoxy-3-[1-(2,2,2-trifluoro-1-methylethyl)azetidin-3-yl]phenyl}ethyl)-9H-purin-6-amine bistrifluoroacetate], on PI3Kδ (p110δ/p85α), the IC50 is below 50 nM.

Regarding `COc1c(C(C)Nc2ncnc3[nH]cnc23)cc(Cl)c(Cl)c1C1CN(CC#N)C1` (centres unmarked) [Example 206, (3-{2,3-Dichloro-6-methoxy-5-[1-(9H-purin-6-ylamino)ethyl]phenyl}azetidin-1-yl)acetonitrile bis(trifluoroacetate)], the IC50 on PI3Kδ (p110δ/p85α) is below 50 nM.

As to `COc1c(C(C)Nc2ncnc3[nH]cnc23)cc(Cl)c(Cl)c1C1CN(CC(F)(F)F)C1` (centres unmarked) [Example 207, N-(1-{4,5-Dichloro-2-methoxy-3-[1-(2,2,2-trifluoroethyl)azetidin-3-yl]phenyl}ethyl)-9H-purin-6-amine bis(trifluoroacetate)], at PI3Kδ (p110δ/p85α), the IC50 was below 50 nM.

`COc1c(C(C)Nc2ncnc3[nH]cnc23)cc(Cl)c(Cl)c1C1CN(C2CCC2)C1` (centres unmarked) [Example 209, N-{1-[4,5-Dichloro-3-(1-cyclobutylazetidin-3-yl)-2-methoxyphenyl]ethyl}-9H-purin-6-amine bistrifluoroacetate] displayed an IC50 on PI3Kδ (p110δ/p85α) below 50 nM.

As to `COc1c(C(C)Nc2ncnc3[nH]cnc23)cc(Cl)c(Cl)c1C1CN(CC(F)F)C1` (centres unmarked) [Example 210, N-(1-{4,5-Dichloro-3-[1-(2,2-difluoroethyl)azetidin-3-yl]-2-methoxyphenyl}ethyl)-9H-purin-6-amine bis(trifluoroacetate)], the IC50 against PI3Kδ (p110δ/p85α) was below 50 nM.

Turning to `CCOc1c(C(C)Nc2ncnc3[nH]cnc23)cc(C#N)c(F)c1-c1ccc(C(=O)N(C)C)nc1` (centres unmarked) [Example 211, 5-{3-Cyano-6-ethoxy-2-fluoro-5-[1-(9H-purin-6-ylamino)ethyl]phenyl}-N,N-dimethylpyridine-2-carboxamide bis(trifluoroacetate)], the IC50 against PI3Kδ (p110δ/p85α) was below 50 nM.

For orientation: IC50 means the midpoint of a concentration-inhibition curve.

The values above are taken from US9815839B2, “N-(1-(substituted-phenyl)ethyl)-9H-purin-6-amines as PI3K inhibitors” (Incyte Corporation, priority 2010, dated 2017).
